pIC50, pKd: −log10 of the molar value.
Legend:
[1] = test system: PI3K-dependent phosphorylation of PKB at Serin 473 in PC3 cells; assay: Cellular PI3K assay (P-S473-PKB Luminex assay in PC3 cells); format: cell-based; conditions: Homo sapiens, PC-3, 0.5 h; PC3 cells, 30 min, serum-free, P-S473-PKB; read-out: IC50 (cell)
Outline: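 PC3 cells were exposed for 30 min under serum-free conditions to 7 concentrations of compound, then lysed. Lysates were captured overnight at 4°C on anti-total-PKB Luminex beads and detected with P-S473-PKB antibody plus PE-labelled secondary.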

[2] = molecular target: PI3Kalpha (Homo sapiens, UniProt P42336); assay: Biochemical PI3Kalpha assay (neomycin SPA, lipid phosphorylation); conditions: human recombinant GST-PI3K
Outline: (§1)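 Recombinant PI3K incubated with lipid substrate and radioactive ATP for 120 min at room temperature with gentle stirring, then stopped with neomycin-coated PVT-SPA beads, ATP 60 mM and EDTA 6.2 mM in PBS. After 60 min bead binding and centrifugation, radioactive Ptdlns(3)P counted by scintillation.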

[3] = molecular target: PI3Kbeta (Homo sapiens, UniProt P42338); assay: Biochemical PI3Kbeta assay (neomycin SPA, lipid phosphorylation); conditions: human recombinant GST-PI3K
Outline: as §1

[4] = molecular target: recombinant PI3Kalpha (shortened form of the catalytic subunit) (Homo sapiens, UniProt P42336); assay: BIACORE PI3K binding assay (SPR); conditions: 25° C.
Outline: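 Contact time was 180 s and dissociation 240 s, in HEPES pH 7.40 buffer with 2% DMSO. Solvent-corrected, double-referenced data were fitted to a 1:1 model with mass transport.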

[5] = molecular target: DNA-PK protein complex (Homo sapiens, UniProt P78527); assay: Biochemical DNA-PK assay (FlashPlate)
Outline: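 Streptavidin-coated FlashPlate radiometric kinase assay, stopped with 200 mM EDTA, then wells washed with 0.9% NaCl and bound radioactivity counted. Blank (non-specific reaction) defined with a proprietary kinase inhibitor at 10 μM.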

[6] = molecular target: T1, mTOR (Homo sapiens, UniProt P42345); assay: Biochemical mTOR assay (Millipore mTOR assay kit)
T1 construct: purchased Millipore 14-770
Procedure: The biochemical mTOR assay was carried out by the method described in the Millipore mTOR assay kit (catalogue number 14-770).

[7] = molecular target: CK2 protein kinase; conditions: cited from earlier work

Chain of recombinant PI3Kalpha (shortened form of the catalytic subunit) (P42336 151-1068 limits assumed): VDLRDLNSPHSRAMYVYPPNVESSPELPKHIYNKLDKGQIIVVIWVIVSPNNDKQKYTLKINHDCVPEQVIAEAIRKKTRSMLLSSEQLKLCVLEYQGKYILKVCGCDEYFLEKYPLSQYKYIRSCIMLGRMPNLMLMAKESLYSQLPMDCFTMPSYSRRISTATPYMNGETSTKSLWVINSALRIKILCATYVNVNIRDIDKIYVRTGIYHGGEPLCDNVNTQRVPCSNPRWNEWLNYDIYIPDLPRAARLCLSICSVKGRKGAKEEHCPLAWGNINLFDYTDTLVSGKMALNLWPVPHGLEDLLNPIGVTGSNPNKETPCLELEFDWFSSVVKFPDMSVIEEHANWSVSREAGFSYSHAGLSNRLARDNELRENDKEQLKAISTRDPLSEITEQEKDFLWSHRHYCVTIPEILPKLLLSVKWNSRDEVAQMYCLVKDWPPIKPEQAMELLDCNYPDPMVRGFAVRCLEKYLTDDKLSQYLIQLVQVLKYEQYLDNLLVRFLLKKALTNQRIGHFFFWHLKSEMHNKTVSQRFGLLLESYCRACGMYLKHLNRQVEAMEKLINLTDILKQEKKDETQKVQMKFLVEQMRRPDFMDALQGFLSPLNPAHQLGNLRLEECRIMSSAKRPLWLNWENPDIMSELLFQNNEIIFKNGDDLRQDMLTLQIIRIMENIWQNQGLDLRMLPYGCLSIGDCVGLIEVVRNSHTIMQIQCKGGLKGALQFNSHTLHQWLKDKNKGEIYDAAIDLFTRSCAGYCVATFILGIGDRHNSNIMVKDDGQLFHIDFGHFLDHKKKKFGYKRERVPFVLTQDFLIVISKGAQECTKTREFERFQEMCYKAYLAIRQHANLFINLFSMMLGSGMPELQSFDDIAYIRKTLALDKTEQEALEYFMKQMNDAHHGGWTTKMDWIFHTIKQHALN
T1 sequence (P42345 1362-2549 limits assumed): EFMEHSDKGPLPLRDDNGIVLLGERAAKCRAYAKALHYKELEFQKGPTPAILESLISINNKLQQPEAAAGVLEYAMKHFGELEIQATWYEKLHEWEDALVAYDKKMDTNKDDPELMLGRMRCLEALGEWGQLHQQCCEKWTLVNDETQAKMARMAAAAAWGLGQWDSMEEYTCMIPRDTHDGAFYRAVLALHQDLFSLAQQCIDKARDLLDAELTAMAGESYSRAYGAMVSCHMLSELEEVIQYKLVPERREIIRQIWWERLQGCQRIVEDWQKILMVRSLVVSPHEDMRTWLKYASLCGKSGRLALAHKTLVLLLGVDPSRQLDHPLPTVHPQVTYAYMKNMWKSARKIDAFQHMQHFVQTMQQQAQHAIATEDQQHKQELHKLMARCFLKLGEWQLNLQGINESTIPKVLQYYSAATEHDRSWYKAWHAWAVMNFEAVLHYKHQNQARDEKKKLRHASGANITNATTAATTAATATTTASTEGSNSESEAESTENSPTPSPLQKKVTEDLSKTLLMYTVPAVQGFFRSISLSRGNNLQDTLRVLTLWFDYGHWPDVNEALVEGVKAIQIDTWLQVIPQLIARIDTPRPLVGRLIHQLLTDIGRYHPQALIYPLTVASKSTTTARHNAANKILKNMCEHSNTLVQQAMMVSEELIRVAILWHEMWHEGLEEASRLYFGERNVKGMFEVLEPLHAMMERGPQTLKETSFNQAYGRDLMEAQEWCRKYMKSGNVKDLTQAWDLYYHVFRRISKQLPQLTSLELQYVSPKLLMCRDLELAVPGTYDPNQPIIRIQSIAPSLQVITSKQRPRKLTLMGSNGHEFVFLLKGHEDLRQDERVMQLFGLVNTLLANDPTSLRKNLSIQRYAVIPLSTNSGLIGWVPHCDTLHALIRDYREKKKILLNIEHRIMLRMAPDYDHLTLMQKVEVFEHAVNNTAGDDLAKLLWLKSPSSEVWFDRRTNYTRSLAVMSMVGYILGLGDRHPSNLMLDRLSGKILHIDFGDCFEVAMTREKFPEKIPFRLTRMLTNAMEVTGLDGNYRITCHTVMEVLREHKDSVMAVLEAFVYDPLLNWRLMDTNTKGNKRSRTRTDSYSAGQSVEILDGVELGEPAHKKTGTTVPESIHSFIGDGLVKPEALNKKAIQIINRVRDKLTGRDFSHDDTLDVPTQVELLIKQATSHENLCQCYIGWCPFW
Chain of PI3Kalpha (P42336 whole entry): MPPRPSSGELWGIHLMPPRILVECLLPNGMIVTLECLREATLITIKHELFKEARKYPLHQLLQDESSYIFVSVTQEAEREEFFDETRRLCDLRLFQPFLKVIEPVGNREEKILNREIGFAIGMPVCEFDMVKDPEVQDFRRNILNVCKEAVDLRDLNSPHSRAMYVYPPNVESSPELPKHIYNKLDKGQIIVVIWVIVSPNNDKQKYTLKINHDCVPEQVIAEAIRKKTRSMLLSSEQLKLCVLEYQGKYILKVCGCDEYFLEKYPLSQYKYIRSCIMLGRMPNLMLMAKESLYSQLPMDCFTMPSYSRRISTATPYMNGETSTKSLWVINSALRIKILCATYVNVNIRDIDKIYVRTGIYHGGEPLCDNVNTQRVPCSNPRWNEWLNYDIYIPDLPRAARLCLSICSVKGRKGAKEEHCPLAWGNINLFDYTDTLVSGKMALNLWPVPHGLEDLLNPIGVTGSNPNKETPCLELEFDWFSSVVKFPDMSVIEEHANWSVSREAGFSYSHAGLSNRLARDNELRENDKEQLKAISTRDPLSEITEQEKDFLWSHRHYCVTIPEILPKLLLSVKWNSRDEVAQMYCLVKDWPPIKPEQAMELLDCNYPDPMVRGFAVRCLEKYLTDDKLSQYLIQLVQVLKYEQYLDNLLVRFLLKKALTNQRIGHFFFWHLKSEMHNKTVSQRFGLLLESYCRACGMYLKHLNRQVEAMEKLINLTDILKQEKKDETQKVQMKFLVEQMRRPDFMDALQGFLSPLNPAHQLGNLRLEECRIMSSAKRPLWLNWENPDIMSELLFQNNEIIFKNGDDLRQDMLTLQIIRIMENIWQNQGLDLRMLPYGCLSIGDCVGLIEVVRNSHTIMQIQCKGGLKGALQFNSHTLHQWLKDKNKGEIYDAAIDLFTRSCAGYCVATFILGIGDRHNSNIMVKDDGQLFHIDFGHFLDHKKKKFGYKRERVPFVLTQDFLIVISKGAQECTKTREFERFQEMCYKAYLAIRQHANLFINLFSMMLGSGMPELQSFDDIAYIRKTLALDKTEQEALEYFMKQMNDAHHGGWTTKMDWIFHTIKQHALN
Chain of PI3Kalpha (P27986 whole entry partner): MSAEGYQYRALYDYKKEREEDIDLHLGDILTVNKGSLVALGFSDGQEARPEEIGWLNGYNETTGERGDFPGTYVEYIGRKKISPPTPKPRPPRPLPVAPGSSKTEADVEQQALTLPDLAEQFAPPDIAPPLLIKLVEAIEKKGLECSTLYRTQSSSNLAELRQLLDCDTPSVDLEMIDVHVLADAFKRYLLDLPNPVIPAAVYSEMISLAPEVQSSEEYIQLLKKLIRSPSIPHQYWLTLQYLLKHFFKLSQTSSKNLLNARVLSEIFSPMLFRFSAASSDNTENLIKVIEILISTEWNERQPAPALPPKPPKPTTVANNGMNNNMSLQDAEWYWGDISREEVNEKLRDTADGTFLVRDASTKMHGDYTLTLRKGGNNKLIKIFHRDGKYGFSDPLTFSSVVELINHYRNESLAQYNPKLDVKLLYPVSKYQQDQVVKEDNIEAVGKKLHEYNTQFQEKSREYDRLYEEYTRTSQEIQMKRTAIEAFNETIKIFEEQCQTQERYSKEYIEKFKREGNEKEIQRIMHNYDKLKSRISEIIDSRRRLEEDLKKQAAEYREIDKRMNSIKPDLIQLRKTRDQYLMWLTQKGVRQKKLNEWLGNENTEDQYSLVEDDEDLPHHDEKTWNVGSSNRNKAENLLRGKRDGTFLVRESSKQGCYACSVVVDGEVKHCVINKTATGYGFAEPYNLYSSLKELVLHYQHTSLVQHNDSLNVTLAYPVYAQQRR
Chain of PI3Kbeta (P42338 whole entry): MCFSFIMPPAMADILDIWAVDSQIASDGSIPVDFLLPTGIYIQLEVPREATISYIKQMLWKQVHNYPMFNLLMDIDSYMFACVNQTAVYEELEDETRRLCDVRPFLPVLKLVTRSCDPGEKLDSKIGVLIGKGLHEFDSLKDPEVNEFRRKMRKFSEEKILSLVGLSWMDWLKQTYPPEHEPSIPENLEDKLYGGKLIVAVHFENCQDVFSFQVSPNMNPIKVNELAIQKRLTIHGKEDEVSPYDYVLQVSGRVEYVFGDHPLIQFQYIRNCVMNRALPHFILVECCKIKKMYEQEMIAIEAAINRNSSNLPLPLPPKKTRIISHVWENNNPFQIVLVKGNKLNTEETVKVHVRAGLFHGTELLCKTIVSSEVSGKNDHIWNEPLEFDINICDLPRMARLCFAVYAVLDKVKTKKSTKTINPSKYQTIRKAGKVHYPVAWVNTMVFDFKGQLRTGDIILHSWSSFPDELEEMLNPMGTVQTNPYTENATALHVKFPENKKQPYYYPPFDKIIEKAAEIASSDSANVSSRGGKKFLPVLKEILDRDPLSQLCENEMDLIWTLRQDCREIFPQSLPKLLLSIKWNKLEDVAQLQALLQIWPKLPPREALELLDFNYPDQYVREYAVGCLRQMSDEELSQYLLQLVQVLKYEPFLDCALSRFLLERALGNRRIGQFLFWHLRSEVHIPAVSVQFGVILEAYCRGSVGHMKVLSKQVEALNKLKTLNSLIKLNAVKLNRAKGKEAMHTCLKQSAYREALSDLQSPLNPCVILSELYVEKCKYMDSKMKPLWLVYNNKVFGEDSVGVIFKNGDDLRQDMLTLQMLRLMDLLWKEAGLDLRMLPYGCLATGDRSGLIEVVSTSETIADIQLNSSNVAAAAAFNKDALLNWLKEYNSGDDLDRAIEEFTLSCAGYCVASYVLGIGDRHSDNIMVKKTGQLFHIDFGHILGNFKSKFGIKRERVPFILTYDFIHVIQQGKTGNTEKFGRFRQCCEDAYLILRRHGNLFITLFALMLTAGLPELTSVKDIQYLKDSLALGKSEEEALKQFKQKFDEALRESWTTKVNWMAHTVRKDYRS
Chain of PI3Kbeta (P27986 whole entry partner): as the sequence (P27986 whole entry partner) above

Row | SMILES | melting point | pIC50 [1] | pIC50 [2] | pIC50 [3] | pKd [4] | pIC50 [5] | pIC50 [6] | pIC50 [7]
1 | Cn1cc(-c2cc(-c3ccc4[nH]ncc4c3)ccn2)n(-c2ccc(C(C)(C)C#N)cc2)c1=O [Example A52, 2-(4-{5-[4-(1H-Indazol-5-yl)pyridin-2-yl]-3-methyl-2-oxo-2,3-dihydroimidazol-1-yl}phenyl)-2-methylpropionitrile] | 165 °C | 5.00 to 7.00 | 5.00 to 7.00 | 5.00 to 7.00 | 7.00 to 10.00 | 7.00 to 10.00 | 5.00 to 7.00 | –
2 | Cn1cc(-c2cc(-c3cnc4ccccc4c3)ccn2)n(-c2ccc(C(C)(C)C#N)cc2)c1=O [Example A1, 2-Methyl-2-{4-[3-methyl-2-oxo-5-(4-quinolin-3-ylpyridin-2-yl)-2,3-dihydroimidazol-1-yl]phenyl}propionitrile] | 228 °C | 5.00 to 7.00 | 5.00 to 7.00 | 5.00 to 7.00 | 5.00 to 7.00 | 7.00 to 10.00 | 7.00 to 10.00 | –
3 | COc1ccc(-c2ccnc(-c3cn(C)c(=O)n3-c3ccc(C(C)(C)C#N)cc3)c2)cn1 [Example A9, 2-{4-[5-(6-Methoxy-[3,4′]bipyridinyl-2′-yl)-3-methyl-2-oxo-2,3-dihydroimidazol-1-yl]phenyl}-2-methylpropionitrile] | 187 °C | 5.00 to 7.00 | 5.00 to 7.00 | 5.00 to 7.00 | 5.00 to 7.00 | 7.00 to 10.00 | 5.00 to 7.00 | –
4 | N#CCc1ccc(-n2c(-c3cc(-c4cnc5[nH]ccc5c4)ccn3)c[nH]c2=O)cc1 [Example A31, (4-{2-oxo-5-[4-(1H-pyrrolo[2,3-b]pyridin-5-yl)pyridin-2-yl]-2,3-dihydroimidazol-1-yl}phenyl)acetonitrile] | > 410 °C (dec.) | 5.00 to 7.00 | 5.00 to 7.00 | 5.00 to 7.00 | 7.00 to 10.00 | 7.00 to 10.00 | 5.00 to 7.00 | –
5 | Cn1cc(-c2cc(-c3cnc4[nH]ccc4c3)ccn2)n(-c2cccc(C#N)c2)c1=O [Example A55, 3-{3-Methyl-2-oxo-5-[4-(1H-pyrrolo[2,3-b]pyridin-5-yl)pyridin-2-yl]-2,3-dihydro-imidazol-1-yl}benzonitrile] | 265 °C | 5.00 to 7.00 | 5.00 to 7.00 | 5.00 to 7.00 | 5.00 to 7.00 | 7.00 to 10.00 | 5.00 to 7.00 | –
6 | COc1ccc(-c2ccnc(-c3cn(C)c(=O)n3-c3ccc(C(C)(C)C#N)cc3)c2)cc1 [Example A13, 2-(4-{5-[4-(4-Methoxyphenyl)pyridin-2-yl]-3-methyl-2-oxo-2,3-dihydroimidazol-1-yl}phenyl)-2-methylpropionitrile] | 219 °C | < 5.00 | < 5.00 | < 5.00 | 5.00 to 7.00 | 7.00 to 10.00 | 5.00 to 7.00 | –
7 | Cn1cc(-c2cc(-c3cnc4c(c3)CC(=O)N4)ccn2)n(-c2ccc(C(C)(C)C#N)cc2)c1=O [Example A44, 2-Methyl-2-(4-{3-methyl-2-oxo-5-[4-(2-oxo-2,3-dihydro-1H-pyrrolo[2,3-b]pyridin-5-yl)pyridin-2-yl]-2,3-dihydroimidazol-1-yl}phenyl)propionitrile] | 263 °C | 5.00 to 7.00 | 5.00 to 7.00 | 5.00 to 7.00 | 7.00 to 10.00 | 7.00 to 10.00 | 5.00 to 7.00 | –
8 | O=c1cc(N2CCOCC2)oc2c(-c3ccccc3)cccc12 [LY294002] | – | – | – | – | – | – | – | 5.00 to 5.30
9 | Cn1cc(-c2cc(-c3cnc4c(c3)CCN4)ccn2)n(-c2ccc(C(C)(C)C#N)cc2)c1=O [Example A43, 2-(4-{5-[4-(2,3-Dihydro-1H-pyrrolo[2,3-b]pyridin-5-yl)pyridin-2-yl]-3-methyl-2-oxo-2,3-dihydroimidazol-1-yl}phenyl)-2-methylpropionitrile] | 247 °C | 5.00 to 7.00 | 7.00 to 10.00 | 5.00 to 7.00 | 7.00 to 10.00 | 7.00 to 10.00 | 5.00 to 7.00 | –
10 | CCOC(=O)C(C)(C)c1ccc(-n2c(-c3cc(-c4cnc5ccccc5c4)ccn3)cn(C)c2=O)cc1 [Example A36, Ethyl 2-methyl-2-{4-[3-methyl-2-oxo-5-(4-quinolin-3-ylpyridin-2-yl)-2,3-dihydro-imidazol-1-yl]phenyl}propionate] | 158 °C | < 5.00 | 5.00 to 7.00 | < 5.00 | 5.00 to 7.00 | 7.00 to 10.00 | 5.00 to 7.00 | –
11 | Cn1cc(-c2cc(-c3cnc4[nH]ccc4c3)ccn2)n(-c2ccc(CC#N)cc2)c1=O [Example A32, (4-{3-Methyl-2-oxo-5-[4-(1H-pyrrolo[2,3-b]pyridin-5-yl)pyridin-2-yl]-2,3-dihydroimidazol-1-yl}phenyl)acetonitrile] | 252 °C | 5.00 to 7.00 | 7.00 to 10.00 | 5.00 to 7.00 | 7.00 to 10.00 | 7.00 to 10.00 | 7.00 to 10.00 | –
12 | Cn1cc(-c2cc(-c3ccsc3)ccn2)n(-c2ccc(C(C)(C)C#N)cc2)c1=O [Example A26, 2-Methyl-2-{4-[3-methyl-2-oxo-5-(4-thiophen-3-ylpyridin-2-yl)-2,3-dihydro-imidazol-1-yl]phenyl}propionitrile] | 209 °C | < 5.00 | 5.00 to 7.00 | < 5.00 | 5.00 to 7.00 | 7.00 to 10.00 | 5.00 to 7.00 | –
13 | Cn1cc(-c2cc(-c3cnc4[nH]ccc4c3)ccn2)n(-c2ccc(C(C)(C)C#N)cc2)c1=O [Example A12, 2-Methyl-2-(4-{3-methyl-2-oxo-5-[4-(1H-pyrrolo[2,3-b]pyridin-5-yl)pyridin-2-yl]-2,3-dihydroimidazol-1-yl}phenyl)propionitrile] | 248 °C | 7.00 to 10.00 | 7.00 to 10.00 | 5.00 to 7.00 | 7.00 to 10.00 | 7.00 to 10.00 | 5.00 to 7.00 | –
